According to patent US20140377390A1, “Cosmetic Compositions Comprising Plant Extracts for Combating Skin Aging” (CASTER, priority 2013, published 2014):
[ ]: non-standard residue; d: D form. Cit = NC(=O)NCCC[C@H](N)C(=O)O

Key:
[1] = system: MDR (Multidrug Resistance Proteins) in HDFa cells; assay: MDR activity test (calcein retention, Vybrant MDR Resistance Assay Kit); details: 24 hours, control = 100%
Source text: In normal cells, non-fluorescent calcein enters the cell and accumulates therein. It is hydrolysed therein by endogenous esterases, and becomes fluorescent. In cells in which MDR expression is increased, the presence of these protein transporters makes it possible to expel the calcein out of the cell before it is cleaved: there is no fluorescence.
To do this, the Molecular Probes Vybrant MDR Resistance Assay Kit (V13180 Invitrogen Life Science) is used.
These cells are then in passage 4. The cells are left to stand for 48 h for adhesion in an incubator at 37° C. and 5% CO2. […] This stock solution at 10 mg/ml is then diluted in PBS until the working concentration is obtained; • 5 wells with FGF (Sigma) at 5 nM final concentration in the well (positive control) or KGF (Sigma) at 25 ng/ml.
The cells comprising active agents are incubated at 37° C., 5% CO2 for 24 hours.
On D3, a labelling solution is prepared by diluting the calcein solution of the kit at 1 mM (component A of the Invitrogen Life Science kit V13180) in PBS, so as to achieve a concentration of 1 μM (1000× dilution); 50 μl of calcein diluted to 1 μM are provided per well, i.e. 5 ml per 96-well plate. […]
The calcein retention is measured on a Perkin Elmer Enspire® Multimode Reader fluorescence spectrophotometer, by reading the fluorescein fluorescence (λexcitation: 494 nm, λemission: 512 nm). […]

[2] = system: primary human fibroblast cells (HDFa); assay: Evaluation of cytotoxicity, MTT colorimetric test (cell vitality); type: cell-based; details: relative to untreated cells = 100%
Source text: This test serves to define the maximum tolerable dose that can be used on the cells without a toxic effect, by means of a rapid and sensitive quantification of the cell proliferation and of the cell viability as a function of the compositions according to the invention.
Briefly, the colorimetric test is based on the activity of a mitochondrial enzyme, succinate dehydrogenase, which degrades the yellow substrate MTT (3-[4,5-dimethylthiazol-2-yl]-2,5-diphenyltetrazolium bromide) into formazan crystals (violet). The amount of formazan salt produced by the cells from the MTT indicates the cell vitality and is measured by spectrophotometry at 570 nm.
In passage 3, the cells were seeded into 96-well plates in a proportion of 2000 cells in a volume of 200 μl of culture medium (Tebu-Bio—Fibroblast Growth Medium—500 ml—Ref 95116500).
On day 7 after seeding of the cells (the medium having been replaced with fresh medium every two days), the culture medium (Tebu-Bio—Fibroblast Growth Medium—500 ml—Ref. 95116500) is removed and 200 μl of the active agent to be tested, diluted in culture medium (no less than 50% of medium), are added and then the cells are reincubated (37° C., 5% CO2).
On the day of the test, 2 ml of fresh MTT solution are prepared by diluting the MTT powder (Thiazolyl Blue Tetrazolium Bromide, Sigma ref. M 5655) to 5 mg/ml in PBS.
20 μl of MTT solution are added to each well. After homogenization, the plate is reincubated (37° C., 5% CO2) for 3 to 4 hours so as to allow metabolization of the MTT.
During this time, the MTT solubilization solution is prepared (DMSO/Isopropanol—1:1). The culture medium is removed by suctioning, and then the plate is dried with absorbent paper. The formazan crystals which have formed are then resuspended with 150 μl of MTT solubilization solution, by agitation at 150 rpm for 15 minutes at ambient temperature.
The optical density is then read at 570 nm on a Perkin Elmer Enspire® Multimode Reader spectrophotometer, with the OD at 670 nm (background noise) being removed.
The result is expressed as a function of the % absorption relative to the % absorption noted for the control cells (not treated with a compound).

## COc1ccc(CCN(C)CCCC(C#N)(c2ccc(OC)c(OC)c2)C(C)C)cc1OC (centres unmarked) [Verapamil, verapamil, reference compound]
[1]; 30 μg/ml, greater than 100 = inhibits MDR activity
  % calcein retention: 139.1%

## H-KDV[Cit]-NH2 [Peptide]
[2]; peptide concentration 0.000001%
  % vitality: 94.6%
[2]; peptide concentration 0.00001%
  % vitality: 71.0%
[2]; peptide concentration 0.00002%
  % vitality: 66.9%
[2]; peptide concentration 0.00004%
  % vitality: 72.0%
[2]; peptide concentration 0.00006%
  % vitality: 44.7%
[2]; peptide concentration 0.00008%
  % vitality: 57.3%
[2]; peptide concentration 0.0001%
  % vitality: 39.8%
[2]; peptide concentration 0.0002%
  % vitality: 47.6%
[2]; peptide concentration 0.005%
  % vitality: 49.7%

B1: KGF: KGF (Sigma), growth factor, positive control (protein, UniProt P21781 32-194, looked up)
Fibroblast growth factor 7: CNDMTPEQMATNVNCSSPERHTRSYDYMEGGDIRVRRLFCRTQWYLRIDKRGKVKGTQEMKNNYNIMEIRTVAVGIVAIKGVESEFYLAMNKEGKLYAKKECNEDCNFKELILENHYNTYASAKWTHNGGEMFVALNQKGIPVRGKKTKKEQKTAHFLPMAIT
[1]; 25 ng/ml, less than 100 = stimulates MDR activity
  % calcein retention: 92.3%
